Laboratory results reported in PubChem BioAssay AID1259407 (Chemical Carcinogenesis Research Information System (CCRIS), 2018).
Calls of active or inactive are those of the source. How the calls were made is not given here.

System: CCRIS mutagenicity, Ames/micronucleus/aberration tests
Assay: CCRIS mutagenicity studies
[1] = Test System: AMES SALMONELLA TYPHIMURIUM, Strain/Indicator: TA100, Metabolic Activation: NONE, Method: STANDARD PLATE

With `Nc1ccn([C@@H]2C=C(CO)[C@@H](O)[C@H]2O)c(=O)n1` the mutagenic call (Test System: AMES SALMONELLA TYPHIMURIUM, Strain/Indicator: TA98, Metabolic Activation: HAMSTER, LIVER, S-9, AROCLOR 1254 (10%), Method: STANDARD PLATE) was “inactive; negative”, the mutagenic call (Test System: AMES SALMONELLA TYPHIMURIUM, Strain/Indicator: TA98, Metabolic Activation: NONE, Method: STANDARD PLATE) was “inactive; negative” and the mutagenic call (Test System: AMES SALMONELLA TYPHIMURIUM, Strain/Indicator: TA98, Metabolic Activation: RAT, LIVER, S-9, AROCLOR 1254 (10%), Method: STANDARD PLATE) was “inactive; negative”. For the same compound, the mutagenic call (Test System: AMES SALMONELLA TYPHIMURIUM, Strain/Indicator: TA100, Metabolic Activation: HAMSTER, LIVER, S-9, AROCLOR 1254 (10%), Method: STANDARD PLATE) was “inactive; negative”, the mutagenic call [1] was “inactive; negative” and the mutagenic call (Test System: AMES SALMONELLA TYPHIMURIUM, Strain/Indicator: TA100, Metabolic Activation: RAT, LIVER, S-9, AROCLOR 1254 (10%), Method: STANDARD PLATE) was “inactive; negative”. For the same compound, the mutagenic call (Test System: AMES SALMONELLA TYPHIMURIUM, Strain/Indicator: TA1535, Metabolic Activation: HAMSTER, LIVER, S-9, AROCLOR 1254 (10%), Method: STANDARD PLATE) was “inactive; negative”, the mutagenic call (Test System: AMES SALMONELLA TYPHIMURIUM, Strain/Indicator: TA1535, Metabolic Activation: NONE, Method: STANDARD PLATE) was “inactive; negative” and the mutagenic call (Test System: AMES SALMONELLA TYPHIMURIUM, Strain/Indicator: TA1535, Metabolic Activation: RAT, LIVER, S-9, AROCLOR 1254 (10%), Method: STANDARD PLATE) was “inactive; negative”. The mutagenic call (Test System: AMES SALMONELLA TYPHIMURIUM, Strain/Indicator: TA1537, Metabolic Activation: HAMSTER, LIVER, S-9, AROCLOR 1254 (10%), Method: STANDARD PLATE) was “inactive; negative”, the mutagenic call (Test System: AMES SALMONELLA TYPHIMURIUM, Strain/Indicator: TA1537, Metabolic Activation: NONE, Method: STANDARD PLATE) was “inactive; negative” and the mutagenic call (Test System: AMES SALMONELLA TYPHIMURIUM, Strain/Indicator: TA1537, Metabolic Activation: RAT, LIVER, S-9, AROCLOR 1254 (10%), Method: STANDARD PLATE) was “inactive; negative”. For the same compound, the mutagenic call (Test System: AMES SALMONELLA TYPHIMURIUM, Strain/Indicator: TA1538, Metabolic Activation: HAMSTER, LIVER, S-9, AROCLOR 1254 (10%), Method: STANDARD PLATE) was “inactive; negative”, the mutagenic call (Test System: AMES SALMONELLA TYPHIMURIUM, Strain/Indicator: TA1538, Metabolic Activation: NONE, Method: STANDARD PLATE) was “inactive; negative” and the mutagenic call (Test System: AMES SALMONELLA TYPHIMURIUM, Strain/Indicator: TA1538, Metabolic Activation: RAT, LIVER, S-9, AROCLOR 1254 (10%), Method: STANDARD PLATE) was “inactive; negative”. The mutagenic call (Test System: MOUSE LYMPHOMA, Strain/Indicator: L5178Y (TK+/TK-), Metabolic Activation: RAT, LIVER, S-9, AROCLOR 1254, Method: SUSPENSION/PLATE) was “active; positive. reevaluation of results: positive” and the mutagenic call (Test System: Mouse lymphoma, Strain/Indicator: L5178Y (tk+/tk-), Metabolic Activation: None, Method: Suspension/plate) was “active; positive”.

In the case of `CCCCCCN=[N+]=[N-]`, the mutagenic call (Test System: Ames Salmonella typhimurium, Strain/Indicator: TA100, Metabolic Activation: None, Method: Preincubation) is reported as “inactive; negative” and the mutagenic call (Test System: Ames Salmonella typhimurium, Strain/Indicator: TA100, Metabolic Activation: Rat, Liver, S-9, Aroclor 1254, Method: Preincubation) is reported as “active; positive”.

In the case of `O=Cc1ccccc1Cl`, the mutagenic call (Test System: AMES SALMONELLA TYPHIMURIUM, Strain/Indicator: TA97, Metabolic Activation: HAMSTER, LIVER, S-9, AROCLOR 1254 (10%), Method: PREINCUBATION) is reported as “inactive; negative”, the mutagenic call (Test System: AMES SALMONELLA TYPHIMURIUM, Strain/Indicator: TA97, Metabolic Activation: HAMSTER, LIVER, S-9, AROCLOR 1254 (30%), Method: PREINCUBATION) is reported as “inactive; negative” and the mutagenic call (Test System: AMES SALMONELLA TYPHIMURIUM, Strain/Indicator: TA97, Metabolic Activation: NONE, Method: PREINCUBATION) is reported as “inactive; negative”. For the same compound, the mutagenic call (Test System: AMES SALMONELLA TYPHIMURIUM, Strain/Indicator: TA97, Metabolic Activation: RAT, LIVER, S-9, AROCLOR 1254 (10%), Method: PREINCUBATION) was “inactive; negative”, the mutagenic call (Test System: AMES SALMONELLA TYPHIMURIUM, Strain/Indicator: TA97, Metabolic Activation: RAT, LIVER, S-9, AROCLOR 1254 (30%), Method: PREINCUBATION) was “inactive; negative” and the mutagenic call (Test System: AMES SALMONELLA TYPHIMURIUM, Strain/Indicator: TA98, Metabolic Activation: HAMSTER, LIVER, S-9, AROCLOR 1254 (10%), Method: PREINCUBATION) was “inactive; negative”. For the same compound, the mutagenic call (Test System: AMES SALMONELLA TYPHIMURIUM, Strain/Indicator: TA98, Metabolic Activation: HAMSTER, LIVER, S-9, AROCLOR 1254 (30%), Method: PREINCUBATION) was “inactive; negative”, the mutagenic call (Test System: AMES SALMONELLA TYPHIMURIUM, Strain/Indicator: TA98, Metabolic Activation: NONE, Method: PREINCUBATION) was “inactive; negative” and the mutagenic call (Test System: AMES SALMONELLA TYPHIMURIUM, Strain/Indicator: TA98, Metabolic Activation: RAT LIVER S-9, PCB, Method: PREINCUBATION) was “inactive; negative”. The mutagenic call (Test System: AMES SALMONELLA TYPHIMURIUM, Strain/Indicator: TA98, Metabolic Activation: RAT, LIVER, S-9, AROCLOR 1254 (10%), Method: PREINCUBATION) was “inactive; negative”, the mutagenic call (Test System: AMES SALMONELLA TYPHIMURIUM, Strain/Indicator: TA98, Metabolic Activation: RAT, LIVER, S-9, AROCLOR 1254 (30%), Method: PREINCUBATION) was “inactive; negative” and the mutagenic call (Test System: AMES SALMONELLA TYPHIMURIUM, Strain/Indicator: TA100, Metabolic Activation: HAMSTER, LIVER, S-9, AROCLOR 1254 (10%), Method: PREINCUBATION) was “inactive; negative”. For the same compound, the mutagenic call (Test System: AMES SALMONELLA TYPHIMURIUM, Strain/Indicator: TA100, Metabolic Activation: HAMSTER, LIVER, S-9, AROCLOR 1254 (30%), Method: PREINCUBATION) was “inactive; negative”, the mutagenic call (Test System: AMES SALMONELLA TYPHIMURIUM, Strain/Indicator: TA100, Metabolic Activation: NONE, Method: PREINCUBATION) was “inactive; negative” and the mutagenic call (Test System: AMES SALMONELLA TYPHIMURIUM, Strain/Indicator: TA100, Metabolic Activation: RAT LIVER S-9, PCB, Method: PREINCUBATION) was “inactive; negative”. The mutagenic call (Test System: AMES SALMONELLA TYPHIMURIUM, Strain/Indicator: TA100, Metabolic Activation: RAT, LIVER, S-9, AROCLOR 1254 (10%), Method: PREINCUBATION) was “inactive; negative”, the mutagenic call (Test System: AMES SALMONELLA TYPHIMURIUM, Strain/Indicator: TA100, Metabolic Activation: RAT, LIVER, S-9, AROCLOR 1254 (30%), Method: PREINCUBATION) was “inactive; negative” and the mutagenic call (Test System: AMES SALMONELLA TYPHIMURIUM, Strain/Indicator: TA104, Metabolic Activation: NONE, Method: PREINCUBATION) was “inactive; negative”. The mutagenic call (Test System: AMES SALMONELLA TYPHIMURIUM, Strain/Indicator: TA104, Metabolic Activation: RAT LIVER S-9, PCB, Method: PREINCUBATION) was “inactive; negative”, the mutagenic call (Test System: AMES SALMONELLA TYPHIMURIUM, Strain/Indicator: TA1535, Metabolic Activation: HAMSTER, LIVER, S-9, AROCLOR 1254 (10%), Method: PREINCUBATION) was “inactive; negative” and the mutagenic call (Test System: AMES SALMONELLA TYPHIMURIUM, Strain/Indicator: TA1535, Metabolic Activation: HAMSTER, LIVER, S-9, AROCLOR 1254 (30%), Method: PREINCUBATION) was “inactive; negative”. The mutagenic call (Test System: AMES SALMONELLA TYPHIMURIUM, Strain/Indicator: TA1535, Metabolic Activation: NONE, Method: PREINCUBATION) was “inactive; negative”, the mutagenic call (Test System: AMES SALMONELLA TYPHIMURIUM, Strain/Indicator: TA1535, Metabolic Activation: RAT, LIVER, S-9, AROCLOR 1254 (10%), Method: PREINCUBATION) was “inactive; negative” and the mutagenic call (Test System: AMES SALMONELLA TYPHIMURIUM, Strain/Indicator: TA1535, Metabolic Activation: RAT, LIVER, S-9, AROCLOR 1254 (30%), Method: PREINCUBATION) was “inactive; negative”. For the same compound, the mutagenic call (Test System: AMES SALMONELLA TYPHIMURIUM, Strain/Indicator: TA1537, Metabolic Activation: HAMSTER, LIVER, S-9, AROCLOR 1254 (30%), Method: PREINCUBATION) was “inactive; negative”, the mutagenic call (Test System: AMES SALMONELLA TYPHIMURIUM, Strain/Indicator: TA1537, Metabolic Activation: NONE, Method: PREINCUBATION) was “inactive; negative” and the mutagenic call (Test System: AMES SALMONELLA TYPHIMURIUM, Strain/Indicator: TA1537, Metabolic Activation: RAT, LIVER, S-9, AROCLOR 1254 (30%), Method: PREINCUBATION) was “inactive; negative”. For the same compound, the mutagenic call (Test System: E.COLI, Strain/Indicator: WP2 UVRA, Metabolic Activation: RAT LIVER S-9, PCB, Method: PREINCUBATION) was “inactive; negative”.

`COS(=O)(=O)c1ccccc1` was tested, and the mutagenic call (End Point: IN VITRO MICRONUCLEUS, Test System: MOUSE LYMPHOMA L5178Y CELLS, Metabolic Activation: NONE) was “active; positive”, the mutagenic call (End Point: IN VITRO MICRONUCLEUS, Test System: MOUSE LYMPHOMA L5178Y CELLS, Metabolic Activation: RAT, LIVER, S-9) was “active; positive” and the mutagenic call (End Point: In vitro micronucleus, Test System: Chinese Hamster Ovary (CHO-WBL) cells, Metabolic Activation: None) was “active; positive (p<0.05)”. For the same compound, the mutagenic call [1] was “inactive; negative; response reported as weakly positive” and the mutagenic call (Test System: AMES SALMONELLA TYPHIMURIUM, Strain/Indicator: TA100, Metabolic Activation: RAT, LIVER, S-9, Method: STANDARD PLATE) was “active; positive”.
